This is an account of results in patent US20160278367A1, “Pesticidal Composition” (priority 2013, published 2016).

The test system of one data set is hematophagous arthropods. The data set can be described thus: terpenes fatal to hematophagous arthropods (test not described).
Details: not given
As for `CC(=O)/C=C/C1=C(C)CCCC1(C)C` [beta-ionone], the “fatal to hematophagous arthropods” value was “fatal”.
Still for that read-out and setting: as for `C=C(C)C1CC=C(C)C(=O)C1` (stereo not drawn) [carvone], the entry is “fatal”; as for `C=CCc1ccc(O)c(OC)c1` [eugenol], “fatal”; as for `CC(C)=CCC/C(C)=C/CO` [geraniol], “fatal”.
Still for that read-out and setting: then `C=CC(C)(O)CCC=C(C)C` (stereo not drawn) [linalool], with “fatal”; and `C=CC(=C)CCC=C(C)C` [myrcene], with “fatal”.
The same measure, in the same setting: then `C=C(C)[C@H]1CC=C(C)CC1` [redistilled limonene, limonene], with “fatal”.

Test system in a further data set: not listed separately
The data set can be described thus: solution and stable suspension of citral. The data set is classed as physicochemical. The following applies: solution. The text has this:
In one embodiment the terpene component includes one or more terpenes which contain oxygen. Citral, for example citral 95, is an oxygenated […], C10H16O CAS No. 5392-40-5 (3,7-dimethyl-2,6-octadien-1-a1). A stable suspension of citral can be formed up to about 2500 ppm. Citral can be made into a solution at up to about 500 ppm. A stable suspension of hollow glucan particles incorporating citral of 25 ppt citral can be made.
In one embodiment the terpene component includes one or more terpenes which contain oxygen. Citral, for example citral 95, is an oxygenated […], C10H16O CAS No. 5392-40-5 (3,7-dimethyl-2,6-octadien-1-a1) . A stable suspension of citral can be formed up to about 2500 ppm. Citral can be made into a solution at up to about 500 ppm. A stable suspension of hollow glucan particles incorporating citral of 25 ppt citral can be made.
As for `CC(C)=CCCC(C)=CC=O` (mixture of isomers) [Citral, 3,7-dimethyl-2,6-octadien-1-a1], the “citral can be made into a solution at up to” value is “about 500 ppm”.

Still in this data set, the particulars now being: suspension.
For the molecule `CC(C)=CCCC(C)=CC=O` (mixture of isomers) [Citral, 3,7-dimethyl-2,6-octadien-1-a1], the “stable suspension of citral can be formed up to” value is “about 2500 ppm”.
